In test [1] the test system is antibody raised against MPAlc. Nature of the test: CEDIA MPA assay specificity (cross-reactivity) in MPA-free plasma. Type of test: binding, goats. How it is done:
“Cross reactivity” is determined in a quantitative immunoassay by establishing a standard curve using known dilutions of MPA. The standard curve is then used to calculate the apparent concentration of the interfering substance present in various known amounts in samples assayed under substantially similar conditions. The percent (%) cross-reactivity is the measured concentration divided by the tested concentration multiplied by 100%. […] If MPA is present in the sample, it binds to the antibody, leaving the ED portion of the ED-containing conjugate free to restore enzyme activity upon association with enzyme acceptor (EA) fragments in the assay reaction mixture. The active enzyme is then capable of producing a quantifiable reaction product when exposed to appropriate substrate. If MPA is not present in the sample, the antibody binds to the ED-containing conjugate inhibiting association of the ED fragments with the EA fragments, thus inhibiting restoration of enzyme activity. The amount of reaction product and resultant absorbance change are proportional to the amount of MPA in the specimen. […] (active metabolite), were added to MPA-free plasma for measuring cross-reactivity. The estimated cross-reactivity of each compound was calculated using the formula: (measured concentration-control concentration)×100% concentration tested Additionally, commonly co-prescribed and over-the-counter (OTC) drugs were tested in MPA-free plasma for cross-reactivity in the […] assay.

The test system of test [2] is inosine-monophosphate dehydrogenase (IMPDH). The note with it: cited from earlier work.

Take `COc1c(C)c2c(c(O[C@@H]3O[C@H](C(=O)O)[C@@H](O)[C@H](O)[C@H]3O)c1C/C=C(\C)CCC(=O)O)C(=O)OC2` [7-O-Glucuronide MPA]: in test [1] (concentration 1000 μg/ml), the “% Cross-Reactivity” value came out at 0.0%. Turning to `COc1c(C)c2c(c(O)c1C/C=C(\C)CCC(=O)O[C@@H]1O[C@H](C(=O)O)[C@@H](O)[C@H](O)[C@H]1O)C(=O)OC2` [Acyl glucuronide MPA], the “% Cross-Reactivity” value in test [1] (concentration 10 μg/ml) was found to be 192%. Also, the “inhibition of IMPDH” value in test [2] was “activity similar to that of MPA”. As for `COc1c(C)c2c(c(O)c1C/C=C(\C)CCC(=O)O)C(=O)OC2` [MPA, Mycophenolic acid], the “inhibition of IMPDH” value in test [2] is “potent and specific inhibitor”. Consider `COc1c(C)c2c(c(O)c1C/C=C(\C)CCC(=O)OCCN1CCOCC1)C(=O)OC2` [Mycophenolate mofetil, 2-morpholinoethyl(E)-6-(1,3-dihydro-4-hydroxy-6-methoxy-7-methyl-3-oxo-5-isobenzofuranyl)-4-methyl-4-hexenoate], for which the “% Cross-Reactivity” value in test [1] (concentration 926 μg/ml) came out at 123%.

(Values after US7138504B2, “Reagents and methods for mycophenolic acid immunoassay” (Microgenics Corporation, priority 2004, dated 2006).)
